{"source": "patent US5753650A", "about": "“Inhibitors of farnesyl-protein transferase” (Merck & Co., Inc., priority 1996, dated 1998)", "biological_target": "Farnesyl-protein transferase (FTase)", "experiment": "In vitro inhibition of Ras farnesyl transferase (farnesylation of Ras-CVLS with [3H]FPP)", "assay_type": "biochemical", "conditions": "Ras-CVLS 3.5 μM, [3H]FPP 0.25 μM; partially purified bovine or recombinant human enzyme; read-out: IC50 (concentration of the test compound which gives 50% inhibition of FTase)", "protocol": "Farnesyl-protein transferase (FTase) from bovine brain was chromatographed on DEAE-Sephacel (Pharmacia, 0-0.8 M NaCl gradient elution), N-octyl agarose (Sigma, 0-0.6 M NaCl gradient elution), and a mono Q HPLC column (Pharmacia, 0-0.3 M NaCl gradient). Ras-CVLS at 3.5 μM, 0.25 μM [^3 H]FPP, and the indicated compounds were incubated with either a partially purified bovine enzyme preparation or a recombinant human enzyme preparation. The recombinant human enzyme was prepared as described in Omer, C. A., Kral, A. M., Diehl, R. E., Prendergast, G. C., Powers, S., Allen, C. M., Gibbs, J. B. and Kohl, N. E. (1993) Biochemistry 32:5167-5176. The FTase data presented below in Table 1 reflects the ability of the test compound to inhibit RAS farnesylation in vitro, as described in Pompliano, et al. Biochemistry 31:3800 (1992).\n*(IC50 is the concentration of the test compound which gives 50%\ninhibition of FTase under the described assay conditions)"}
{"compound": "CN(C(=O)[C@@H](N)CS)C1N=C(c2ccccc2)c2ccccc2NC1=O", "note": "(single isomer, unassigned) [1 - faster eluting isomer]", "values": [{"measurement": "IC50", "result": 2600, "unit": "nM"}]}
{"compound": "3-[N-2(S)-amino-3-mercaptopropionyl-N-methyl]amino-2,3-dihydro-2-oxo-5-phenyl-1H-1,4-benzodiazepine [1 - slower eluting isomer]", "values": [{"measurement": "IC50", "result": 110, "unit": "nM"}]}
{"compound": "N[C@@H](CS)C(=O)NC1N=C(c2ccccc2)c2ccccc2NC1=O", "note": "(single isomer, unassigned) [2 - slower eluting isomer]", "values": [{"measurement": "IC50", "result": 42000, "unit": "nM"}]}
{"compound": "N[C@@H](CS)C(=O)NC1N=C(c2ccccc2)c2ccccc2NC1=O", "note": "(single isomer, unassigned) [2 - faster eluting isomer]", "values": [{"measurement": "IC50", "result": 1600, "unit": "nM"}]}
